Experimental data: US12390464B2, “Treatment of EGFR mutant-related cancers using a combination of EGFR and CDK4/6 inhibitors” (BETA PHARMA, INC., priority 2019, dated 2025)
“And” between values parts separate entries of the source, which are not always exact repeats. Equal entries are not always repeated.

Columns and labels:
[1] = tested on: MCF7 human breast cancer cell line; settings: cited from earlier work
[2] = tested on: HCC827 tumors (delE746-A750 activating mutation); assay: Antitumor activity in the HCC827 mouse xenograft model; assay type: in vivo; settings: oral QD; for Tumor Weight Inhibition Rate: tumors harvested day 35; for Tumor Weight: tumors harvested day 35, mean ± SD, n = 8
Experimental: Cell Culture and Implantation. HCC827 cells were cultured in a CO2 incubator in culture media containing modified RPMI (Hyclone, Cat: SH30809.01); 10% fetal bovine serum (Gibco, Cat: 10099-141); 100 U/ml penicillin and 100 μg/ml streptomycin (Hyclone, Cat: SV30010). Cells were digested with 0.25% trypsin (Hyclone, Cat: SH30042.01) and subcultured every four days. When the required cells was in the logarithmic growth phase, the cell counts were collected and the tumors were subcutaneously implanted in Balb/c nude female mice (14-19 g) at 1×10^7/0.2 mL/mouse (50% Matrigel CORNING, Cat: 354234) in the right back side of each mouse. 8 days after implantation, 56 mice with tumor volume of 132-289 mm^3 were selected and randomly divided into 7 groups according to tumor volume and body weight.
Test Sample Preparation Formulation and Administration. A stock solution of 1 as the methanesulfonate salt was prepared at 0.3 mg/mL in normal saline. A stock solution of 2 as the hydrochloride salt was prepared 2.0 mg/mL in sterile water. The vehicle control was a solution of 0.5% sodium carboxymethyl cellulose in sterile water. All stock solutions were stored at 2-8° C. and prepared fresh on a weekly basis. The stock solutions were administered orally either individually or in combination at the indicated salt dosages depicted in FIG. 1 and Table 2 once a day for 14 days. Dosing was suspended when body weight lost more than 15%.
Tumor Volume Determination and Data Analysis. The tumor volumes were determined twice per week by measuring the length and width of each tumor with a Vernier caliper and calculating the tumor volume. All tumors were harvested on day 35 and weighed. The Tumor Weight Inhibition Rate (IRTW%) was calculated via the equation: IRTW%=(1−(TW(treated)/TW(control)))×100%, where TW is defined as tumor weight. Histograms were generated using Prism GraphPad (mean±S.E.M.), and T analysis was used for statistical analysis. A p value less than 0.05 represents a significant difference between groups and a p value less than 0.01 represents a highly significant difference between groups.

[3] = tested on: kinase domain of the T790M double mutant; settings: cited from earlier work

| Structure (SMILES) | in vitro activity in MCF7 cell line [1] | Tumor Weight Inhibition Rate ([2]; 2 at 20 mg/kg alone) [%] | Tumor Weight ([2]; 2 at 20 mg/kg alone) [g] | Tumor Weight ([2]; 1 at 3 mg/kg alone) [g] | Tumor Weight Inhibition Rate ([2]; 1 at 3 mg/kg alone, 3 mg/kg) | inhibition of EGFR T790M double mutant kinase domain [3] |
| --- | --- | --- | --- | --- | --- | --- |
| CCN1CCN(Cc2ccc(Nc3ncc(F)c(-c4ccc5nn(C)c(C(C)C)c5c4)n3)nc2)CC1 [Compound 2, N-[5-[(4-ethyl-1-piperazinyl)methyl]-2-pyridinyl]-5-fluoro-4-[2-methyl-3-(1-methylethyl)-2H-indazol-5-yl]-2-pyrimidinamine] | potent in vitro activity | 30.2 | 0.5864 ± 0.2235 |  |  |  |
| C=CC(=O)Nc1cc(Nc2nccc(-c3cn(C)c4ccccc34)n2)c(OC)cc1OCCN(C)C [Compound 1, N-[2-[2-(dimethylamino)ethoxy]-4-methoxy-5-[[4-(1-methyl-1H-indol-3-yl)-2-pyrimidinyl]amino]phenyl]-2-propenamide] |  |  |  | 0.1423 ± 0.1152 | 83.1% and 83.1^f % | effectively inhibits |
